Measurements published in US20240299591A1, “Antimicrobial Peptides and Their Use” (priority 2021, published 2024).
“Also recorded” adds a separate entry of the source. Where a SMILES comes first, the peptide text is derived from it. [ ]: non-standard residue; d: D form. The star is where a group is joined. X1 = CN1/C(=C/C=C(/C=C/C2=[N+](C)c3ccccc3C2(C)C)c2ccc(C(=O)*)cn2)C(C)(C)c2ccccc21

Columns and labels:
Aspergillus species = settings: cited from earlier work
Fusarium species = settings: clinical isolates (Arikan et al., 2001); cited from earlier work
[1] = tested on: C. albicans, F. oxysporum, A. fumigatus, and C. neoformans; test: Live cell imaging, fluorescent labelling of pathogenic fungi; assay type: cell-based; design: dose or concentration left out as unconfirmed; settings: 15 min incubation at 37° C. in RPMI
Experimental: The N. crassa mat A WT used for confocal live-cell imaging was grown on 100% Vogel's agar medium at 25° C. for 3-5 days before the spores were harvested. The A. fumigatus CEA10 strain used for confocal live-cell imaging was grown on 100% Vogel's medium at 37° C. for 4-5 days before the spores were harvested. Before the confocal experiments were performed, N. crassa spores were incubated in eight-well slide culture chambers for 3 h at 25° C. in liquid 10% Vogel's medium and A. fumigatus spores were incubated for 16 h at 25° C. in liquid 10% Vogel's medium in order to allow germination to fully take place for imaging.
Live-cell imaging of germinated fungi spores was performed using a Leica TCS SP8 confocal laser scanning microscope equipped with photo multiplier tubes (PMT), hybrid GaAsP (HyD) detectors and a 63× water immersion objective. A Leica turntable white light laser (WLL, 450-750 nm), argon laser (458 nm, 476 nm, 488 nm and 496 nm) and UV laser (405 nm) were used for fluorescence excitation.
The major pathogenic fungi include C. albicans, F. oxysporum, A. fumigatus, and C. neoformans.

A. fumigatus [2] = test: Live cell imaging of A. fumigatus in co-cultures with A549; assay type: cell-based, Aspergillus fumigatus; settings: 2.5 µM, 10 min after addition, 37° C. in RPMI
Aspergillus fumigatus [3] = assay type: cell-based; settings: Conidia (10% Vogel's), 37° C., 24 h
Experimental: The assays were performed using Nunc 262162 U96 polystyrene round bottomed clear plates (www.nuncbrand.com).
(§1) When testing the peptides against A. fumigatus, peptides at different concentrations were mixed with A. fumigatus conidia to reach a final volume of 100 μL per well. The final conidial concentration was 5×10^5 cells/mL in 10% Vogel's medium. After 24 h of incubation at 37° C. in 96 well plates, fungal growth with the different peptide concentrations was determined by measurement of the optical density at 610 nm in a TriStar LB 941 Multimode Microplate Reader. The IC50 values were determined using four parameter logistic regression formula provided by Sigma Plot 10.0. Values are represented as means±SEM from two independent experiments (n=3).
(§2) The IC50 of the fluorescently labelled peptides cannot be accurately determined using the optical density method described in the last section. This is because the fluorophore structures absorbed light at 610 nm which was the wavelength used for the optical density measurements. In order to overcome this, the BacTiter-Glo™ Microbial Cell Viability Assay kit purchased from Promega was used. The BacTiter-Glo™ Reagent relies on the properties of a proprietary thermostable luciferase (Ultra-Glo™ Recombinant Luciferase) and a proprietary formulation for extracting ATP from fungal cells which will generates a ‘glow-type’ luminescent signal. This is produced by the luciferase reaction shown in Scheme 1, which has a signal half-life of over 30 min depending on the experimental conditions. The luminescent signal is proportional to the amount of ATP present, which is directly proportional to the number of living cells in culture.
(§3) The IC50 assays for all fluorescently labelled peptides were performed using Greiner CELLSTAR white polystyrene wells flat bottomed 96 well plates. The incubation conditions remained the same for the optical density measurement described in the previous section. Once the incubation procedure was finished, the plate was equilibrated to room temperature. A mixture of BacTiter-Glo™ buffer and substrate was then added to the plate (100 μL per well). The plate was shaken for 5 min and read using the Tristar […] luminometer. Data analysis was performed using Sigma Plot 10.0. All values shown are presented as means±SEM from two independent experiments (n=3).

[4] = tested on: Human Red Blood Cells (HRBCs); test: Haemolytic activity in human red blood cells; settings: 10 μM, 37° C., 1 h
Experimental: Molecules, DMSO (as positive control) and PBS (as negative control) were incubated with human RBCs at 37° C. and their viability was assessed after 1 h.
Erythrocytes were isolated from freshly drawn, anticoagulated human blood and diluted in PBS (1:5). An amount of 50 μl of erythrocyte suspension was added to 50 μl of compounds at 10 µM. DMSO was used as positive control and PBS as negative control. The plate was incubated at 37° C. for 1 h, each well was diluted with 150 μl of PBS and the plate was centrifuged at 1,200 g for 15 min. A total of 100 μl of the supernatant from each well was transferred to a fresh plate, and the absorbance at 350 nm was measured in a microplate reader. Data is represented as % of cell viability as means from three independent experiments with n=3.

S. aureus = test: Live cell imaging with S. aureus; assay type: cell-based, Staphylococcus aureus; settings: 2.5 µM, 20 min incubation at 37° C. in RPMI
From the text: MFIGAF001a labels gram positive bacteria Staphylococcus aureus. (FIG. 14).

[5] = Viability of reconstructed cornea-like epithelium (eye irritation model); assay type: cell-based; settings: human, reconstructed cornea-like epithelium (RhCE, EpiOcular™); 10 μM; read-out: Mean of Viabilities (%)
Experimental: (§4) FIG. 4a is a graph of the viability reconstructed cornea-like epithelium (RhCE, EpiOcular™) after incubation with MFIGA001. NC=Negative Control; PC=Positive Control. FIG. 4b is a graph of the viability reconstructed cornea-like epithelium (RhCE, EpiOcular™) after incubation with 10 µM of MFIGA001a and MFIGAF001b. NC=Negative Control; PC=Positive Control; A2=MFIGAF001a; and B1=MFIGAF001b.
(§5) MFIGAF001 was also assessed independently by a CRO (Evotec) in an OECD compliant reconstructed cornea-like epithelial cell model (RhCE, EpiOcular™).

[6] = tested on: reconstructed cornea-like epithelium (RhCE, EpiOcular™); test: as above; assay type: cell-based; settings: RhCE, EpiOcular™
Experimental: as §4, §5

rabbit eye = test: Tolerability study on rabbit eyes in vivo; settings: 10 µM, 50 µL into the right eye, three rabbits, observed 7 days
Experimental: Three rabbits (rabbits 1, 2 and 3) were tested. All rabbits appeared unaffected immediately post-treatment and through the next 7 days with no signs of irritation and no change in general condition. MFIGAF001a was used at 10 µM and 50 µL and was admitted into the right eye of the rabbits.

P. aeruginosa = test: Live cell imaging with P. aeruginosa; assay type: cell-based; settings: 2.5 μM, 37° C. in RPMI, 1 h
A. fumigatus [7] = test: Live cell imaging in pig corneal infection model; design: species or system Aspergillus fumigatus; dose or concentration left out as unconfirmed; settings: 15 min incubation at 37° C.
Experimental: MFIGAF001a in a pig corneal infection model was investigated (FIG. 12).
Porcine corneal was infected with A. fumigatus using the same method described above (Biological Example 8). After confirming the success of infection, 1 drop of MFIGAF001 solution in water (2.5 μM) was added topically to the corneal surface and incubated for 15 min at 37° C. before confocal microscopy.

Fusarium oxysporum = assay type: cell-based; settings: Conidia (10% Vogel's), 35° C., 24 h
Experimental: Dose dependent inhibition of fungal growth by all non-labelled peptides (indicated by IC50 values) was determined via this methodology. The assays were performed using Nunc 262162 U96 polystyrene round bottomed clear plates (www.nuncbrand.com).
as §1
When testing the peptides against N. crassa and F. oxysporum, experiments were carried as described above apart from the incubation temperature was changed to 25° C. for N. crassa and 35° C. for F. oxysporum.
as §2, §3

[8] = tested on: A. fumigatus and S. aureus; test: Live cell imaging in pig corneal infection model co-infected by A. fumigatus and S. aureus; settings: 2.5 μM, 15 min incubation at 37° C., co-infected 48 h
From the text: The labelled compound can be used to distinguish fungus from S. aureus when using confocal microscopy based on assessing the morphology of the areas of fluorescence. The fungal hyphea can be observed and identified based on its characteristic filamentous shape, and its much larger size compared to the bacteria which appears to be much smaller and having a dotted shape.

Aspergillus fumigatus [9] = assay type: cell-based; settings: Conidia (RPMI), 37° C., 24 h

SMILES: CC[C@H](C)C[C@H](C)CCCCCCCCC(=O)N[C@H]1C[C@@H](O)[C@@H](NCCN)NC(=O)[C@@H]2[C@@H](O)CCN2C(=O)[C@H]([C@H](O)CCN)NC(=O)[C@H]([C@H](O)[C@@H](O)c2ccc(O)cc2)NC(=O)[C@@H]2C[C@@H](O)CN2C(=O)[C@H]([C@@H](C)O)NC1=O [Caspofungin]
- MICs against Aspergillus clinical isolates (Aspergillus species): moderate MICs
- Activity against Fusarium species (MIC testing) (Fusarium species): not particularly active

SMILES: CN1/C(=C/C=C(/C=C/C2=[N+](C)c3ccccc3C2(C)C)c2ccc(C(=O)NCCCC[C@@H]3NC(=O)[C@H](Cc4c[nH]c5ccccc45)NC(=O)[C@H](Cc4ccccc4)NC(=O)[C@H](Cc4c[nH]c5ccccc45)NC(=O)[C@@H](Cc4ccccc4)NC(=O)[C@H](CCCCN)NC(=O)[C@H](CCCCN)NC(=O)[C@H](CCCNC(=N)N)NC(=O)CNC3=O)cn2)C(C)(C)c2ccccc21 [MFIGAF001a, Cyclo(Arg-Lys-Lys-phe-Trp-Phe-Trp-Lys(Cy5)-Gly)] (cyclo(FWK(X1)GRKK[dF]W))
- Fluorescent labelling of pathogenic fungi [1]: label all major pathogenic fungi that cause fungal keratitis; also recorded: rapid and highly fluorogenic labelling
- Selective labelling of A. fumigatus over A549 (A. fumigatus [2]): selectively labels A. fumigatus over A549 cell
- IC50 Aspergillus fumigatus (Aspergillus fumigatus [3]): 1.3 µg/mL
- Haemolytic activity against HRBCs [4]: no haemolytic activity
- Labelling of gram positive bacteria Staphylococcus aureus (S. aureus): labels
- viability at 10 µM [5]: 98%
- Toxicity, reconstructed cornea-like epithelium (FIG. 4) [6]: no obvious toxicity
- Tolerability / eye irritation in rabbit eye (rabbit eye): no eye irritation; also recorded: well tolerated
- Selectivity over gram negative bacteria Pseudomonas (labelling) (P. aeruginosa): great selectivity
- Selective labelling of A. fumigatus over porcine corneal tissue (A. fumigatus [7]): selectively labelled A. fumigatus
- IC50 Fusarium oxysporum (Fusarium oxysporum): 1.5 µg/mL
- Differentiation of fungus from S. aureus by morphology of fluorescence [8]: can be used to differentiate fungal keratitis and gram positive bacterial keratitis

SMILES: C[C@@H]1C/C=C/C=C/C=C/C=C/[C@H](O[C@@H]2O[C@H](C)[C@@H](O)[C@H](N)[C@@H]2O)C[C@@H]2O[C@](O)(C[C@@H](O)C[C@H]3O[C@@H]3/C=C/C(=O)O1)C[C@H](O)[C@H]2C(=O)O [Natamycin]
- IC99 Aspergillus fumigatus (Aspergillus fumigatus [9]): 39 mg/L
